The structures appear in SMILES notation.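 Five compound concentrations were applied to cells in 96-well plates for 48 hours; endpoints were derived by simple linear interpolation of the resulting dose-response curve. GI50 is the concentration that inhibits growth by half.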 The source made the active and inactive calls. Rule as the data show it: active = GI50 up to about 1.1 µM and inactive = higher.

Common to all, as to assay: DTP human tumour cell line panel, 48 h
Assay [1] relates to OVCAR-3.
The test system of assay [2] is SNB-75.
The test system of assay [3] is NCI/ADR-RES.
Assay [4] concerns UACC-62.
Assay [5] has as its system SNB-19.
For assay [6], the system named is A549.
Assay [7] concerns Malme-3M.
Assay [8] relates to EKVX.
The test system of assay [9] is BT-549.
Assay [10] has as its system CCRF-CEM.
Assay [11] concerns UACC-257.
Assay [12] deals with NCI-H522.
Assay [13] concerns 786-0.
Assay [14] deals with TK-10.
The subject of assay [15] is SK-MEL-28.
Assay [16] deals with SK-MEL-5.
The test system of assay [17] is IGROV-1.
The test system of assay [18] is MDA-N.
Assay [19] has as its system SF-295.
Assay [20] has as its system A498.

As to `CC1(C)C=C(/C=N/Nc2ccc([N+](=O)[O-])cc2)C(C#N)=C(O)C1(C#N)C#N`, the GI50 in [1], in [2], in [3], in assay [4], in assay [5] and in assay [6] was > 100 µM (inactive) in each case. The GI50 in assay [7], in assay [8], in assay [9], in [10], in [11] and in assay [12] was > 100 µM (inactive) throughout. The GI50 in [13], in [14], in assay [15], in [16], in assay [17] and in assay [18] was > 100 µM (inactive) each time. Also, the GI50 in assay [19] is > 100 µM (inactive).

Consider `Nc1ccn([C@H]2CO[C@@H](CO)O2)c(=O)n1`, for which the GI50 in [1] was > 71.6 µM (inactive); in [2], > 100 µM (inactive); in assay [3], 3.88 µM (inactive); in assay [4], 2.37 µM (inactive); in [5], 4.26 µM (inactive); in assay [6], 1.35 µM (inactive). In addition, the GI50 in [7] was 62.2 µM (inactive); in [8], > 55.8 µM (inactive); in assay [9] it was 32.7 µM (inactive); in assay [10] it was 0.238 µM (active); in assay [11], 97.7 µM (inactive); in [12] it was 7.03 µM (inactive). In addition, the GI50 in [13] was 2.87 µM (inactive); in [14], > 100 µM (inactive); in assay [15], 15.7 µM (inactive); in assay [16], 18.9 µM (inactive); in assay [17], 74 µM (inactive); in [18], 17.4 µM (inactive). The GI50 in assay [19] is 1.2 µM (inactive).

Take `CCN(CC)P(=O)(c1ccc2c(c1)OCCOCCOCCOCCO2)N(CC)CC`: the GI50 in assay [2], in assay [4], in [5], in assay [20], in assay [6] and in assay [7] was > 100 µM (inactive) each time. For the same compound, the GI50 in assay [8], in assay [9], in assay [10], in [12], in assay [13] and in assay [14] was > 100 µM (inactive) in each case. The GI50 in assay [15], in assay [16], in assay [17], in assay [18] and in assay [19] was > 100 µM (inactive) throughout.

As to `CC(C)=CCC/C(C)=C/CC/C(C)=C/CC/C(C)=C/CC/C(C)=C/CC/C(C)=C/CC/C(C)=C/CC/C(C)=C/CC/C(C)=C/CO` [SOLANESOL], the GI50 in assay [1], in [2], in assay [4], in [5], in assay [20] and in [6] was > 100 µM (inactive) each time. The GI50 in [7], in assay [8], in assay [9], in [10], in assay [11] and in [12] was > 100 µM (inactive) in each case. Also, the GI50 in [13], in assay [14], in assay [15], in assay [16], in assay [17] and in assay [18] was > 100 µM (inactive) throughout. The GI50 in [19] was > 100 µM (inactive).

As to `Cc1cc(C)c2c(c1)C/C(=C\c1ccccc1C(=O)O)C2=O`, the GI50 in assay [1] was 23.7 µM (inactive); in [2] it was 75.3 µM (inactive); in assay [5] it was > 100 µM (inactive); in assay [20], 51.5 µM (inactive); in [6] it was 68.4 µM (inactive); in [7], > 100 µM (inactive). For the same compound, the GI50 in assay [8] was 82.6 µM (inactive); in assay [9] it was 29.9 µM (inactive); in assay [10], 34.6 µM (inactive); in assay [11] it was > 100 µM (inactive); in assay [12] it was 66.2 µM (inactive); in [13] it was > 100 µM (inactive). For the same compound, the GI50 in assay [14] is > 100 µM (inactive); in assay [15], > 100 µM (inactive); in assay [16], 82.4 µM (inactive); in assay [17] it was > 100 µM (inactive); in assay [18], > 100 µM (inactive); in assay [19] it was > 100 µM (inactive).

With `COc1ccc(/C=N/n2c(C)n[nH]c2=O)cc1`, the GI50 in [1] was 54.3 µM (inactive); in assay [2], > 100 µM (inactive); in assay [3], > 100 µM (inactive); in assay [4], > 100 µM (inactive); in assay [5] it was > 100 µM (inactive); in assay [20], > 100 µM (inactive). Moreover, the GI50 in assay [6] was > 100 µM (inactive); in [7], > 100 µM (inactive); in assay [8] it was 85.7 µM (inactive); in [9], > 100 µM (inactive); in assay [10] it was > 100 µM (inactive); in assay [11], > 100 µM (inactive). Besides, the GI50 in assay [13], in assay [15], in [18] and in assay [19] was > 100 µM (inactive) throughout.

For the compound `CC(NC(=O)C(CC(=O)OCc1ccccc1)NC(=O)OCc1ccccc1)c1ccccc1` (stereo not drawn), the GI50 in assay [1] was > 100 µM (inactive); in assay [2], > 100 µM (inactive); in assay [3] it was > 100 µM (inactive); in [4], 37.8 µM (inactive); in assay [5], 48 µM (inactive); in assay [6] it was 73.5 µM (inactive). The GI50 in assay [7] was 73.3 µM (inactive); in assay [8], > 100 µM (inactive); in assay [9] it was > 100 µM (inactive); in [11], > 10 µM (inactive); in assay [12], 37.4 µM (inactive); in assay [13], 49.2 µM (inactive). Also, the GI50 was > 100 µM (inactive) in assay [14]; 90.2 µM (inactive) in assay [15]; > 100 µM (inactive) in [16]; > 100 µM (inactive) in [17]; > 100 µM (inactive) in [18]; 55.1 µM (inactive) in assay [19].

In the case of `COc1cc(/C=N\NC(=O)C[N+](C)(C)C)cc(OC)c1OC`, the GI50 in assay [1], in assay [2], in assay [3], in [4], in assay [5] and in [6] was > 10 µM (inactive) in each case. Also, the GI50 in assay [7], in assay [9], in assay [10], in assay [11], in assay [12] and in [13] was > 10 µM (inactive) each time. For the same compound, the GI50 in assay [14], in assay [15], in assay [16], in assay [17], in [18] and in assay [19] was > 10 µM (inactive) in each case.

With `CCOn1cc(C[C@@]2(O)C(=O)OC3[C@@H](O)CO[C@@]32O)c2ccccc21` (stereo partly drawn), the GI50 was > 100 µM (inactive) in assay [1]; > 100 µM (inactive) in assay [2]; > 100 µM (inactive) in [3]; 46.7 µM (inactive) in assay [4]; > 100 µM (inactive) in assay [5]; 1.94 µM (inactive) in assay [20]. Also, the GI50 in assay [6] is > 100 µM (inactive); in assay [7] it was > 100 µM (inactive); in assay [8], > 100 µM (inactive); in assay [9], > 100 µM (inactive); in [10], 36.5 µM (inactive); in [11], > 100 µM (inactive). The GI50 in assay [12] is > 100 µM (inactive); in assay [13], 94.4 µM (inactive); in assay [14] it was > 100 µM (inactive); in [15], > 100 µM (inactive); in assay [16], > 100 µM (inactive); in assay [17], > 100 µM (inactive). Further, the GI50 in assay [19] is > 100 µM (inactive).

As for `Cc1ccc(/N=N/C(=NNC(=O)c2ccc(C)cc2)c2ccc(N(C)C)cc2)cc1`, the GI50 in assay [1] was 17.6 µM (inactive); in [3], 41.3 µM (inactive); in assay [4] it was 10.8 µM (inactive); in assay [5], 24.8 µM (inactive); in assay [6], 28.6 µM (inactive); in assay [8] it was 30.1 µM (inactive). The GI50 in [9] is 26.2 µM (inactive); in assay [11], 21.9 µM (inactive); in [12], 20.9 µM (inactive); in [13] it was 33.3 µM (inactive); in assay [14] it was 64.7 µM (inactive); in assay [15], 36 µM (inactive). For the same compound, the GI50 was 15.5 µM (inactive) in [16], 29.3 µM (inactive) in assay [17], 19.8 µM (inactive) in [18] and 26.4 µM (inactive) in [19].

On to `[N-]=[N+]=NC1=C(C(=O)c2ccccc2)C(=O)c2cccc3cccc1c23`, for which the GI50 in [1] is 30.5 µM (inactive); in assay [2] it was 15.8 µM (inactive); in assay [3] it was 67.3 µM (inactive); in assay [4], 31.3 µM (inactive); in [5] it was 28.1 µM (inactive); in assay [6], 45.2 µM (inactive). For the same compound, the GI50 is 46.7 µM (inactive) in [7]; 19.1 µM (inactive) in [8]; 44.8 µM (inactive) in assay [9]; 21.4 µM (inactive) in assay [10]; 48.8 µM (inactive) in [11]; 23 µM (inactive) in assay [12]. The GI50 in assay [13] is 25.3 µM (inactive); in [14], 21.9 µM (inactive); in assay [15], 66.7 µM (inactive); in [16], 44.2 µM (inactive); in [17], 10.1 µM (inactive); in [18] it was 64.3 µM (inactive). Further, the GI50 in assay [19] was 42.3 µM (inactive).

(Values after ChEMBL document CHEMBL1201862, “PubChem BioAssay data set” (2004).)
